Values of other authors, collected in patent publication US20230218659A1, “Selenium-Based Compositions and Therapeutic Methods” (Hess Pharmaceuticals, Inc, priority 2020, published 2023).

Settings: 200 µg/day selenium with or without 400 IU/day vitamin E; 35,533 men aged 50 years or older; after 5.5 years

## [Se] [selenium]
  association between prostate cancer risk and supplementation: no association
